Test results: ChEMBL document CHEMBL1201862, “PubChem BioAssay data set” (2004)
Calls of active or inactive are those of the source.

How the values were obtained:
Beta-galactosidase = Beta-galactosidase (Escherichia coli, UniProt Q8VNN2); test: PubChem AID 485352; format: functional
[1] = target: Type-1 angiotensin II receptor (Homo sapiens, UniProt P30556); test: AT1 receptor antagonists, dose response, selectivity assay for APJ receptor antagonist project, cell-based, uHTS hits (AID 463214); format: functional;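 further: antagonist potency against angiotensin II stimulated AT1 response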
Chain of Type-1 angiotensin II receptor (P30556 whole entry): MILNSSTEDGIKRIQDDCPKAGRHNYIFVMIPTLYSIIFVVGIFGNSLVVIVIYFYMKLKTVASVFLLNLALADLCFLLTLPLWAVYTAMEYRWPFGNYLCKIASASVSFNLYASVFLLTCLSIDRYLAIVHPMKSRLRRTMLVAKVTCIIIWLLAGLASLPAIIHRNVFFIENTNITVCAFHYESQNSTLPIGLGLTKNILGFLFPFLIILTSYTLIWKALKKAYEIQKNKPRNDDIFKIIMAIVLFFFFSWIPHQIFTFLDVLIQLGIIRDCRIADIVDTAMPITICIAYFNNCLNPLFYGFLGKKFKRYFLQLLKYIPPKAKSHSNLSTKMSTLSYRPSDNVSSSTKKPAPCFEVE

[2] = target: Voltage-gated inwardly rectifying potassium channel KCNH2 (Homo sapiens, UniProt Q12809); conditions: Potency;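 further: confirmatory quantitative high-throughput screen measuring inhibition of hERG channel activity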
[3] = cytotoxicity in HMLE control line with eGFP shRNA, dose response, counter-screen for HMLE_sh_ECad selective toxicity project, cell-based, HMLE_sh_eGFP, luminescence (AID 463074); format: functional, Homo sapiens;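 further: HMLE human mammary epithelial cells expressing control shRNA against eGFP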
[4] = Luminescence Cell-Based Dose Retest to Confirm Inhibitors of Cancer Stem Cells. [Related pubchem assays (depositor defined):AID2717, AID2721]; format: functional; conditions: Homo sapiens
[5] = target: Heat shock protein HSP 90-alpha (Homo sapiens, UniProt P07900); format: functional, organism-based
BJ = test: cytotoxicity toward Ras-transformed BJeLR fibroblasts, dose response, cell-based, alamar blue fluorescence, cherrypicked samples (AID 2631); format: functional; conditions: Homo sapiens;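 further: confirmatory dose-response assay in RAS-dependent BJ fibroblasts engineered with TERT, LT and ST, with cytotoxicity read by fluorescence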
HeLa = test: Cytotoxicity counterscreen assay for transcriptional activators of heat shock protein 70 (Hsp70). [Related pubchem assays: 1203, 1252 ]; format: functional; conditions: Homo sapiens;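 further: cells exposed to compound for 16 hours before readout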
X-box-binding protein 1 = X-box-binding protein 1 (Homo sapiens, UniProt P17861); format: functional, Cricetulus griseus;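 further: confirmatory dose-response counter-screen serving a CHOP assay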
Chain of X-box-binding protein 1 (P17861 whole entry): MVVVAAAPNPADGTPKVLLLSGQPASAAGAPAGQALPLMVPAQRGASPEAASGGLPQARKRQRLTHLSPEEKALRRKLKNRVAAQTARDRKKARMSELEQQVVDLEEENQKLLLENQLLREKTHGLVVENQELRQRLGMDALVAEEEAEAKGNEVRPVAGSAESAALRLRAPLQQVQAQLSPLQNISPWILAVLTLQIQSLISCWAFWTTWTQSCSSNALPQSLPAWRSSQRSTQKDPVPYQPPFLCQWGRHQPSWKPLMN

[6] = target: DNA damage-inducible transcript 3 protein (Mus musculus, UniProt P35639); format: functional, Cricetulus griseus
Chain of DNA damage-inducible transcript 3 protein (P35639 whole entry): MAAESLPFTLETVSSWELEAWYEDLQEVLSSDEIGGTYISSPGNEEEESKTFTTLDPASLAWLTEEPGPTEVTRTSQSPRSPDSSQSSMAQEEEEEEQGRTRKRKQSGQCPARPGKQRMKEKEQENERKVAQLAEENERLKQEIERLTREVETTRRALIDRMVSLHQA

HEK293 [7] = test: cytotoxicity in HEK293T NF-kB-Luc cells, SAR follow-up, cytotoxicity control for NF-kB activator project, cell-based, resazurin fluorescence (AID 493251); format: functional; conditions: Homo sapiens
HEK293 [8] = test: SAR Analysis of small molecule inhibitors of B-cell specific antigen receptor-induced NF-kB activation in a HEK-293T cell line using a luminescence assay - Set 2. [Related pubchem assays (depositor defined):AID435022, AID435025, AID489021]; format: functional, cell-based; conditions: Homo sapiens
Jurkat [9] = test: SAR Analysis of small molecule inhibitors of […] specific antigen receptor-induced NF-kB activation in a Jurkat cell line using a luminescence assay - Set 3. [Related pubchem assays (depositor defined):AID435022, AID435025, AID465]; format: functional, cell-based; conditions: Homo sapiens
[10] = target: T1, Beta-adrenergic receptor kinase 1 (Homo sapiens, UniProt P25098); test: GRK2 inhibitors displacing RNA aptamer, dose response, biochemical, flow cytometry beads, FAM-aptamer, powder set 1 (AID 588720)
T1 sequence (P25098 whole entry): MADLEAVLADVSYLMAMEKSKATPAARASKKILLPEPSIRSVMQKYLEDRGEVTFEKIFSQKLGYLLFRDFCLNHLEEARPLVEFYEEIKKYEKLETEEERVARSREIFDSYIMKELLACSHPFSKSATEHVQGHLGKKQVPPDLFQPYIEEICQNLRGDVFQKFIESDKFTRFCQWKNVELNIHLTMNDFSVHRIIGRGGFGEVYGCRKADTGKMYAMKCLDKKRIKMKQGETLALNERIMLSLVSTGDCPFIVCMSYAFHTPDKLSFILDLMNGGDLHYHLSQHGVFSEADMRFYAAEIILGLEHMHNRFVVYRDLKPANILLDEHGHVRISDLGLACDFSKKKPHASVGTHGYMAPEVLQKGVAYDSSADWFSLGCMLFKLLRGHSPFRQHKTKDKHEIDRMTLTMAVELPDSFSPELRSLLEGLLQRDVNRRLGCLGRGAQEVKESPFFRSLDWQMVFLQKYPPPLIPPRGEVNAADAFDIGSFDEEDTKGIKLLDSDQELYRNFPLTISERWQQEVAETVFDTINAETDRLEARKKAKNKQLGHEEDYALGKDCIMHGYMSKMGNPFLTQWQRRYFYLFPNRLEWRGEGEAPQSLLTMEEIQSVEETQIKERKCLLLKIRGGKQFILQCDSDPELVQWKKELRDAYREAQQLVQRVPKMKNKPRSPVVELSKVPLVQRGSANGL

[11] = cytotoxicity in HEK-293T NF-kB-Luc cells, dose response, cytotoxicity control for B/T-cell NF-kB inhibitor project, cell-based, uHTS hits (AID 489019); format: functional;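 further: IC50 reflects cytotoxicity as loss of cell viability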
INS1 = test: beta cell apoptosis inhibitors, cytokine rescue, dose response, luminescence, retest (AID 449756); format: functional, cell-based; conditions: Rattus norvegicus;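 further: cell death triggered by IL-1 beta plus TNF-alpha plus IFN-gamma mixture; protective hits raise ATP signal compared with cytokine alone wells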
Jurkat [12] = test: antigen receptor-induced NF-kB inhibitors, dose response, Jurkat, luciferase reporter, luminescence, B- and T-cell (AID 489004); format: functional, cell-based; conditions: Homo sapiens;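 further: NF-kB luciferase reporter Jurkat cells stimulated with PMA plus ionomycin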
A-375 = test: MITF: Counter assay: A375 proliferation Measured in Cell-Based System Using Plate Reader - 2084-03_Inhibitor_Dose_DryPowder_Activity. [Related pubchem assays (depositor defined):AID488944]; format: functional; conditions: Homo sapiens
[13] = target: Hepatocyte nuclear factor 4-alpha (Homo sapiens, UniProt P41235); format: functional, cell-based;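 further: biochemical luminescence-based dose-response counterscreen measuring inhibition of HNF4 dimerization, run alongside a screen for blockers of ABHD5–perilipin-5 interaction; split luciferase complementation of HNF4 fusion proteins in cell lysate measuring dimerization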
Chain of Hepatocyte nuclear factor 4-alpha (P41235 whole entry, the tested form may be a part): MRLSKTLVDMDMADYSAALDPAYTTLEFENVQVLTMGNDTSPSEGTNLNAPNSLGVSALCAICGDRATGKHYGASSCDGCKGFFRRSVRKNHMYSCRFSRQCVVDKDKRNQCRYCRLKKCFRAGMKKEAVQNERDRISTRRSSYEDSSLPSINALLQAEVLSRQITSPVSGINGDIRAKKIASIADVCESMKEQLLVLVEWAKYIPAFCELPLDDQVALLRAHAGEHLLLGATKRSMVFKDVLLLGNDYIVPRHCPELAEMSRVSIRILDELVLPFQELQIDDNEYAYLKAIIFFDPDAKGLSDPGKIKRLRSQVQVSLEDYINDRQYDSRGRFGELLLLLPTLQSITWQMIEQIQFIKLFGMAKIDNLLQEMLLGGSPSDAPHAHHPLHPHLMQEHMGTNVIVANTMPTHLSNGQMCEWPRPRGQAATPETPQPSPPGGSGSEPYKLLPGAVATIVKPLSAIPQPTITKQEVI

[14] = microbe, parasite or virus in culture; format: functional; conditions: Mycobacterium tuberculosis
Cytochrome P450 1A2 = target: T2, Cytochrome P450 1A2 (Homo sapiens, UniProt P05177);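 further: PubChem cytochrome P450 panel assay, CYP1A2 panel member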
T2 sequence (P05177 whole entry): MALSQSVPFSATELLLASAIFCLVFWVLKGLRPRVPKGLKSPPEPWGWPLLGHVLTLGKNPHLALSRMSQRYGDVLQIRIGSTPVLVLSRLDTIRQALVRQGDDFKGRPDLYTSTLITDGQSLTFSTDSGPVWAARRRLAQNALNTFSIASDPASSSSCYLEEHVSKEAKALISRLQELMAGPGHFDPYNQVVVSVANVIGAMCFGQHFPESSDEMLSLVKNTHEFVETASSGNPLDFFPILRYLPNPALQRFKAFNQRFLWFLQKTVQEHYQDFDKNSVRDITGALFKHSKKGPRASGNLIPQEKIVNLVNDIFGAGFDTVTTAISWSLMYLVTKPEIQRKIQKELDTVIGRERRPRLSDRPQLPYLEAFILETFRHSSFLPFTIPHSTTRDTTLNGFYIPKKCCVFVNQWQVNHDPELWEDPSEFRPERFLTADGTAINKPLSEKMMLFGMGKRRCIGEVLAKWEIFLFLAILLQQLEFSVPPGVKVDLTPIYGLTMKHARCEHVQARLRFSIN

Cytochrome P450 2D6 = Cytochrome P450 2D6 (Homo sapiens, UniProt P10635);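 further: CYP2D6 member of a cytochrome P450 panel assay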
Chain of Cytochrome P450 2D6 (P10635 whole entry): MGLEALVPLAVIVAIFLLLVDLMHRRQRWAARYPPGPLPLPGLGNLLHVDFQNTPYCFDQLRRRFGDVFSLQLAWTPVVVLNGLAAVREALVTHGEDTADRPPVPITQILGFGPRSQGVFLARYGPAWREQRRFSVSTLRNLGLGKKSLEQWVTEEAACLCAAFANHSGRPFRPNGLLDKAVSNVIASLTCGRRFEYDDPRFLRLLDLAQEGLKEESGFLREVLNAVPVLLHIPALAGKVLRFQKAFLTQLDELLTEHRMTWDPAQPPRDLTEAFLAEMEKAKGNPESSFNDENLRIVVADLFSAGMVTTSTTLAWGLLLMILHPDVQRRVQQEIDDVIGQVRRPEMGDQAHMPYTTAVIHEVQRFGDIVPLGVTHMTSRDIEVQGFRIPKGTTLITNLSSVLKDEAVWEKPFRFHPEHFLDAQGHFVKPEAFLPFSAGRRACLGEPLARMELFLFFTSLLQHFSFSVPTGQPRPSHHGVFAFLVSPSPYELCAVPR

[15] = target: Potassium voltage-gated channel subfamily KQT member 2 (Rattus norvegicus, UniProt O88943); test: KCNQ2 channel activators, analog series, SAR follow-up, automated patch clamp, KCNQ2-CHO cells (AID 493113); format: functional
Chain of Potassium voltage-gated channel subfamily KQT member 2 (O88943 whole entry): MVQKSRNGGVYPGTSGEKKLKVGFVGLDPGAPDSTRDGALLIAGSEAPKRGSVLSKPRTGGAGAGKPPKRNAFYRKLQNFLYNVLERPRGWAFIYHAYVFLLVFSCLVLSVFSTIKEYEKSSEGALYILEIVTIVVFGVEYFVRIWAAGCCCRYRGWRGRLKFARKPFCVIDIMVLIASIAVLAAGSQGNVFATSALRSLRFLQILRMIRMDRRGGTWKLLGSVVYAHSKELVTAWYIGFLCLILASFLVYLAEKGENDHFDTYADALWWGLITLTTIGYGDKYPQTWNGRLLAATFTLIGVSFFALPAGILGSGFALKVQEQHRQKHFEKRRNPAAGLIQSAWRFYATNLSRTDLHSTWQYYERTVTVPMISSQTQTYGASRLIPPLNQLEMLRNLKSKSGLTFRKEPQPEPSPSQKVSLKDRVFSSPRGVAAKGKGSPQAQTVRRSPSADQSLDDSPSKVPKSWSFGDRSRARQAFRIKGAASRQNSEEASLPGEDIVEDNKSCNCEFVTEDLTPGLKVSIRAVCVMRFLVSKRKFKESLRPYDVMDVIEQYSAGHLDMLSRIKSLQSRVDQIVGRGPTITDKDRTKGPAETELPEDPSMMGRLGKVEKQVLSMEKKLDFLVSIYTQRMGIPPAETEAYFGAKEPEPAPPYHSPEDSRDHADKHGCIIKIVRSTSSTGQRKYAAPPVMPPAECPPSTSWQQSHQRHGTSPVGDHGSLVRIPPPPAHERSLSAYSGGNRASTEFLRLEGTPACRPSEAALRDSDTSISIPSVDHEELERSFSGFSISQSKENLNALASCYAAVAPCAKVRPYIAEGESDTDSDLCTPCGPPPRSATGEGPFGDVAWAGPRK

[16] = target: T1, Beta-adrenergic receptor kinase 1; test: aptamer displacement from bead-bound GRK2 – biochemical, cherry pick 1, bead flow cytometry, dose response (AID 504500)
[17] = target: Photoreceptor-specific nuclear receptor (Homo sapiens, UniProt Q9Y5X4); test: NR2E3 inverse agonists, dose response, biochemical, TR-FRET (AID 463256); format: functional
Chain of Photoreceptor-specific nuclear receptor (Q9Y5X4 whole entry): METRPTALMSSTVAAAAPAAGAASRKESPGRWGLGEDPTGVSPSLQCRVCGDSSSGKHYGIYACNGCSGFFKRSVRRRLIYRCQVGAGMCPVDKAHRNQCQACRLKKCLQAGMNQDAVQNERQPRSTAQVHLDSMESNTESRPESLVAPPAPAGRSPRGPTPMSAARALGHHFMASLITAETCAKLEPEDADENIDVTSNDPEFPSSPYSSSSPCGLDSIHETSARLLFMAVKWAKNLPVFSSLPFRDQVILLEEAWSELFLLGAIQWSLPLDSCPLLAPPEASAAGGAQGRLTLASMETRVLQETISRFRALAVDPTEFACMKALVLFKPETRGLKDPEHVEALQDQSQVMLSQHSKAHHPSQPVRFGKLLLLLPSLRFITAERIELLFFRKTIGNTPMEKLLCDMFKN

[18] = target: T3, Heat shock factor protein 1 (Mus musculus, UniProt P38532); test: inhibition of MG132-induced HSE-luciferase signal, confirmation, cell-based, NIH3T3, luminescence, dose retest (AID 2382); format: functional;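 further: NIH3T3 fibroblasts with HSF1-driven luciferase reporter stressed by proteasome inhibitor MG132; luminescence from HSF1-driven luciferase expression after 8 hours of MG132 stress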
T3 sequence (P38532 whole entry): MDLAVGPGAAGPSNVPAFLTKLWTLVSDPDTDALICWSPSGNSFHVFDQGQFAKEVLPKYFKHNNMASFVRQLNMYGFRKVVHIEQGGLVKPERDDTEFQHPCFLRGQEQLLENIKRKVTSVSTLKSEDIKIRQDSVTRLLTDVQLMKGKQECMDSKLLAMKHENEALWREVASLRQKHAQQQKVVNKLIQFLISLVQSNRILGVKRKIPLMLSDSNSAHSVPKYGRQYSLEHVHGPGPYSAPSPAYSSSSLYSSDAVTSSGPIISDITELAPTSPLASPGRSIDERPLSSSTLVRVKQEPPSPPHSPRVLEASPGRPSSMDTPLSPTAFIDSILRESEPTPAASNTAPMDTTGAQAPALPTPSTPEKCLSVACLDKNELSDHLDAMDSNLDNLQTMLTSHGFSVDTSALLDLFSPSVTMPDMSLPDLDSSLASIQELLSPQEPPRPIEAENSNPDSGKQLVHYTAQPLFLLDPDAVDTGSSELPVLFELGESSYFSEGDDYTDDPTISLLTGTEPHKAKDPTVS

[19] = target: Peroxisome proliferator-activated receptor gamma/Nuclear receptor corepressor 2 (Homo sapiens, UniProt P37231+Q9Y618); test: Counterscreen for NR2E3 inverse agonists: TR-FRET-based biochemical high throughput dose response assay to identify inverse agonists of the interaction between peroxisome proliferator-activated receptor gamma (PPARg) and nuclear receptor co-repressor 2 (NCOR2).; format: functional
[20] = target: T4, Carboxy-terminal domain RNA polymerase II polypeptide A small phosphatase 1 (Homo sapiens, UniProt Q9GZU7); test: inhibitors of CTDSP1, concentration-response testing, biochemical assay, absorbance-based, actives from ultra-high-throughput screening (AID 540297); format: functional
T4 sequence (Q9GZU7 whole entry): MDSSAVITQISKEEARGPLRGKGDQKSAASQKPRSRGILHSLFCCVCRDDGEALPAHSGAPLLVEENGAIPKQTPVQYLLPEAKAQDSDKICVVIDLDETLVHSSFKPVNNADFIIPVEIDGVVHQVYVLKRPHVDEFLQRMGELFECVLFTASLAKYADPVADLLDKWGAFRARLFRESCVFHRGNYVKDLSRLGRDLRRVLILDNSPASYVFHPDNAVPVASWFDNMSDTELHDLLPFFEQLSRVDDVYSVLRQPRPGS

Chain of Beta-galactosidase (Q8VNN2 whole entry): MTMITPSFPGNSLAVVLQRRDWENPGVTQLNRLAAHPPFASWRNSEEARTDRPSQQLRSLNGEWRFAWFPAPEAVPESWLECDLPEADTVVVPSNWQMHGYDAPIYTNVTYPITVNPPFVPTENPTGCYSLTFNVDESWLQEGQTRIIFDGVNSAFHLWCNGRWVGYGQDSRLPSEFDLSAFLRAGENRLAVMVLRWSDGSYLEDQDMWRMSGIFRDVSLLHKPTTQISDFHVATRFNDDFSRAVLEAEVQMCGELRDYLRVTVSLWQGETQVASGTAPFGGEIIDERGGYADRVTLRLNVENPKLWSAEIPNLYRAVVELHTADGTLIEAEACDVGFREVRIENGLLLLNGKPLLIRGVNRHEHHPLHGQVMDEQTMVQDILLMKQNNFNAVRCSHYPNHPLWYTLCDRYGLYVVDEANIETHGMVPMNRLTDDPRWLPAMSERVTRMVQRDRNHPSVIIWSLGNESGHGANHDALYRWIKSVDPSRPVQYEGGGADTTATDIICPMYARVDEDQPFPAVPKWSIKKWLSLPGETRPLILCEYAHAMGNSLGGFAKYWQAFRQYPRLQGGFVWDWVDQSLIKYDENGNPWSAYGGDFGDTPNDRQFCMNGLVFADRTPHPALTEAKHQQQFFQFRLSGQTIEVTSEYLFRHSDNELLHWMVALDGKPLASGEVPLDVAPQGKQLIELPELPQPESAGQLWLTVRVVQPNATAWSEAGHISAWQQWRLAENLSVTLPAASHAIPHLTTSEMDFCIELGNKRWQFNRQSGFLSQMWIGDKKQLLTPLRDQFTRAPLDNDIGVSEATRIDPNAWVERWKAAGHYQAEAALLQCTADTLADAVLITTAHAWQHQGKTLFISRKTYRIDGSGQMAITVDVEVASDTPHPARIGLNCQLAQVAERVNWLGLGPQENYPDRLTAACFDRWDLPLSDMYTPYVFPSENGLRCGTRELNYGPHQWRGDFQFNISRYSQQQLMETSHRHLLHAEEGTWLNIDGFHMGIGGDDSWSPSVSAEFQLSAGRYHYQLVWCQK

For `Cc1ccc(C(=O)COC(=O)CCC(=O)Nc2ccccc2Cl)cc1[N+](=O)[O-]`, the EC50 (Beta-galactosidase) was > 40 µM (inactive) and the IC50 [1] was 22.9 µM (not active).
In the case of `CC(=O)CC(C)C` [METHYL ISOBUTYL KETONE], the AC50 [2] is reported as 15.8 µM (inconclusive).
In the case of `C/C(=N\Nc1cccc(Cl)c1)C1(C)N(O)C(C)(C)C(c2ccco2)=[N+]1[O-]` (stereo not drawn), the AC50 [3] is reported as 1.5 µM (inconclusive) and the AC50 [4] is reported as 1.06 µM (active).
For `O=C1/C(=C/c2ccncc2)CCC/C1=C\c1ccncc1`, the AC50 [5] was 8.7 µM (active), the EC50 (BJ) was 0.474 µM (active) and the CC50 (HeLa) was > 1.22 µM (not active). The “Absolute IC50 (XBP1)” value (X-box-binding protein 1) was 10 µM and the “Absolute IC50 (CHOP)” value [6] was 10 µM.
With `CCOc1ccc(-c2nc(CSCC(=O)NC3CCCC(C)C3C)c(C)o2)cc1` (stereo not drawn) the IC50 (HEK293 [7]) was 38.9 µM (inactive), the IC50 (HEK293 [8]) was 8.81 µM (active) and the IC50 (Jurkat [9]) was 39.3 µM (inactive).
For `O=C(CCS(=O)(=O)c1ccc(Br)s1)Nc1ccccc1Br`, the EC50 [10] was 20.9 µM (active).
With `COC1=CC(=O)[C@]2(C=C1OC)OC[C@@H]1Oc3c(ccc4c3C=CC(C)(C)O4)C(=O)[C@@H]12` the IC50 [11] was 23 µM (inactive), the AC50 (INS1) was 0.671 µM (active) and the IC50 (Jurkat [12]) was 28.7 µM (inactive).
For `COc1ccc(C)c2sc(N(CCN(C)C)C(=O)/C=C/c3cccs3)nc12`, the AC50 (A-375) was 43.2 µM (active), the IC50 [13] was 35.2 µM (inactive) and the CC50 [14] was 12.7 µM (active).
In the case of `Nc1nnc(-c2cccc(Cl)c2Cl)c(N)n1` [LAMOTRIGINE], the AC50 (Cytochrome P450 1A2) is reported as “inactive” and the AC50 (Cytochrome P450 2D6) is reported as 6.31 µM (active).
With `O=C(Nc1ccc(F)cc1F)C1CC2CCC1C2` (stereo not drawn) the EC50 [15] was 10 µM (active).
With `CCc1ccccc1NC(=O)CCS(=O)(=O)c1ccc(OC)cc1` the EC50 [16] was 17.8 µM (inactive), the IC50 [17] was 13.9 µM (not active) and the EC50 [18] was > 195 µM (not active). The IC50 [19] was 16.8 µM (not active) and the IC50 [20] was 21.1 µM (active).
